This passage reports IC50 results from patent publication US10954228B2 (NATIONAL INSTITUTES OF HEALTH, UNITED STATES DEPARTMENT OF …, priority 2016, dated 2021).

The IC50 is the concentration that inhibits the measured activity by half.

The target of this test is Human LDHA (Homo sapiens (Human), UniProt P00338). Nature of the test: human LDHA primary biochemical assay. As to conditions: biochemical LDHA inhibitory activity, assay of Example 1; activity level classes defined in nM. The source says:
This example describes a human LDHA primary biochemical assay employed in the characterization of a compound of formula (I) in an embodiment of the invention.
Test compounds were placed in a Greiner Bio-One (Monroe, N.C.) 1536-well black solid bottom assay plate. 200 millimolar (mM) Tris HCl, pH 7.4, 100 micromolar (μM) EDTA and 0.01% TWEEN-20™, final concentration, was used as the assay buffer. The LDHA reagent was 2 nanomolar (nM) Human LDHA (Meridian Life Science, Inc., Memphis, Tenn.), final concentration, in assay buffer. The substrate reagent was 0.06 mM NADH and 0.2 mM sodium pyruvate, final concentration, in assay buffer. The resazurin/diaphorase coupling reagent was 0.037 mM resazurin and 0.133 milligrams per milliliter (mg/mL) diaphorase, final concentration, in assay buffer. The inhibition of LDHA activity was measured by fluorescence emission.

For `Cc1cnc(C#Cc2cccc(-c3nn(-c4nc(C(=O)O)cs4)c(CCC4CC4)c3Cc3ccc(S(N)(=O)=O)c(F)c3)c2)s1` [Compound 234, 2-(5-(2-cyclopropylethyl)-4-(3-fluoro-4-sulfamoylbenzyl)-3-(3-((5-methylthiazol-2-yl)ethynyl)phenyl)-1H-pyrazol-1-yl)thiazole-4-carboxylic acid], the half-inhibitory concentration (IC50) is less than 100 nM. In the case of `CC(C)c1ccc(-c2cccc(-c3nn(-c4nc(C(=O)O)cs4)c(CC4CC4)c3Cc3ccc(S(N)(=O)=O)c(F)c3)n2)cc1` [Compound 211, 2-[5-(cyclopropylmethyl)-4-[(3-fluoro-4-sulfamoylphenyl)methyl]-3-[6-(4-isopropylphenyl)pyridin-2-yl]pyrazol-1-yl]-1,3-thiazole-4-carboxylic acid] it was 100 to 1000 nM; in that of `N[S+](=O)([O-])c1ccc(Cc2c(-c3ccc(F)c(C(=O)N4CCCC4)c3)nn(-c3nc(C(=O)O)cs3)c2CC2CC2)cc1F` [Compound 154], less than 100 nM. In the case of `NS(=O)(=O)c1ccc(Cc2c(-c3ccc(F)c(N4CCCC4=O)c3)nn(-c3nc(C(=O)O)cs3)c2CC2CC2)cc1F` [Compound 202, 2-(5-(cyclopropylmethyl)-3-(4-fluoro-3-(2-oxopyrrolidin-1-yl)phenyl)-4-(3-fluoro-4-sulfamoylbenzyl)-1H-pyrazol-1-yl)thiazole-4-carboxylic acid] it was less than 100 nM; in that of `NS(=O)(=O)c1ccc(Cc2c(-c3ccc(F)c(-c4ncc[nH]4)c3)nn(-c3nc(C(=O)O)cs3)c2CC2CC2)cc1F` [Compound 159, 2-(5-(cyclopropylmethyl)-3-(4-fluoro-3-(1H-imidazol-2-yl)phenyl)-4-(3-fluoro-4-sulfamoylbenzyl)-1H-pyrazol-1-yl)thiazole-4-carboxylic acid], less than 100 nM.

`Cc1cc(C#Cc2cccc(-c3nn(-c4nc(C(=O)O)cs4)c(CC4CC4)c3Cc3ccc(S(N)(=O)=O)c(F)c3)c2)cs1` [Compound 240, 2-(5-(cyclopropylmethyl)-4-(3-fluoro-4-sulfamoylbenzyl)-3-(3-((5-methylthiophen-3-yl)ethynyl)phenyl)-1H-pyrazol-1-yl)thiazole-4-carboxylic acid] showed an IC50 of less than 100 nM. Under `Cc1ccc(C#Cc2cccc(-c3nn(-c4nc(C(=O)O)co4)c(CC4CC4)c3Cc3ccc(S(N)(=O)=O)c(F)c3)c2)s1` [Compound 247, 2-(5-(cyclopropylmethyl)-4-(3-fluoro-4-sulfamoylbenzyl)-3-(3-((5-methylthiophen-2-yl)ethynyl)phenyl)-1H-pyrazol-1-yl)oxazole-4-carboxylic acid] stands less than 100 nM; under `NS(=O)(=O)c1ccc(Cc2c(-c3cccc(-c4ccc(C(F)(F)C(F)(F)F)cc4)c3)nn(-c3nc(C(=O)O)cs3)c2CCC2CC2)cc1F` [Compound 205, 2-(5-(2-cyclopropylethyl)-4-(3-fluoro-4-sulfamoylbenzyl)-3-(4′-(perfluoroethyl)-[1,1′-biphenyl]-3-yl)-1H-pyrazol-1-yl)thiazole-4-carboxylic acid], 100 to 1000 nM. As to `Cc1ccc(C#Cc2cccc(-c3nn(-c4nc(C(=O)NS(C)(=O)=O)cs4)c(CC4CC4)c3Cc3ccc(S(N)(=O)=O)c(F)c3)c2)s1` [Compound 180, 2-(5-(cyclopropylmethyl)-4-(3-fluoro-4-sulfamoylbenzyl)-3-(3-((5-methylthiophen-2-yl)ethynyl)phenyl)-1H-pyrazol-1-yl)-N-(methylsulfonyl)thiazole-4-carboxamide], the IC50 lay within 1000 to 57000 nM. Under `NS(=O)(=O)c1ccc(Cc2c(-c3ccc(F)c(-c4ccc(C5CC5)c(F)c4)c3)nn(-c3nc(C(=O)O)cs3)c2CC2CC2)cc1F` [Compound 212, 2-{3-[3-(4-cyclopropyl-3-fluorophenyl)-4-fluorophenyl]-5-(cyclopropylmethyl)-4-[(3-fluoro-4-sulfamoylphenyl)methyl]pyrazol-1-yl}-1,3-thiazole-4-carboxylic acid] stands 100 to 1000 nM.
